Emax and EC50 data for 10 molecules are collected here from ChEMBL document CHEMBL1135189, “Discovery of non-zwitterionic GABA(A) receptor full agonists and a superagonist” (Bioorg Med Chem Lett, 2002).

Common to all, as to format: functional
The target in assay [1] is T1, GABA-A receptor; anion channel (Mus musculus) (UniProt Q8BHJ7+P26048+Q8QZW7+P50571+Q9R0Y8+P22723+A2AMW3+P62812+Q9JLF1+P26049+P22933+Q9D6F4+P63080+P27681+P16305). Put plainly: Agonistic activity against GABA-A receptor chloride uptake, partial agonist.
Assay [2] concerns the target GABA-A receptor; anion channel. Put plainly: Activation of chloride ion uptake into mouse brain synaptoneurosomes.
Assay [3] deals with T1, GABA-A receptor; anion channel (Mus musculus). Put plainly: Agonistic activity against GABA-A receptor chloride uptake, super-agonist.
In assay [4] the target is GABA-A receptor; anion channel. As to the kind of experiment: Activation of chloride ion uptake into mouse brain synaptoneurosomes, no net uptake at […].
Assay [5] concerns the target T1, GABA-A receptor; anion channel (Mus musculus). As to the kind of experiment: Agonistic activity against GABA-A receptor chloride uptake, full agonist.

Each structure is given as a SMILES string. A value given as a limit tells only on which side of the number the result lay.

In general, EC50 refers to the concentration needed to bring the measured effect to its halfway point. A low value points to higher potency in that assay. The molecule `NCCCC(N)=O` had an Emax in assay [1] of 307. For the same molecule, the midpoint of the response in assay [2], the EC50, lay at 317 µM.
In assay [3], `NCCCC(=O)NCCCCNC(=O)CCCN` returned an Emax of 578. Moreover, the response in assay [2] was half-maximal at 475 µM (EC50).
Molecule `NCCCC(=O)NCCNCC(=O)O` displayed an EC50 in assay [4] of over 4000 µM.
In turn, `NCCCC(=O)NCCCCCCNC(=O)CCCN` came in with an Emax in assay [5] of 433. Besides, in assay [2], the EC50 was determined as 643 µM.
In assay [1], `NCCCC(=O)NCCNC(=O)CCCN` yielded an Emax of 264. For the same molecule, a half-maximal effect in assay [2] (EC50) was put at 733 µM.
`NCCCC(=O)NCCN`: the EC50 in assay [4] was over 4000 µM.
As for `CC(=O)NCCCCNC(=O)CCCN`, the Emax in assay [5] was 549. Besides, the EC50 in assay [2] is 414 µM.
As to `CCCCNC(=O)CCCN`, the Emax in assay [1] was 362. In assay [2], this molecule registered an EC50 of 340 µM.
`NCCCCNC(=O)CCCN`: the Emax in assay [5] was 497. The response in assay [2] was half-maximal at 1140 µM (EC50).
With `Oc1noc2c1CCNC2` [GABOXADOL], the response in assay [2] was half-maximal at 335 µM (EC50).
